How the values were obtained:
MMP 13 = MMP 13 (Homo sapiens, UniProt P45452); assay: MMP 13 inhibition (HTS); format: biochemical
TACE = molecular target: T1, TACE (Homo sapiens, UniProt P78536); assay: Procedure for Measuring TACE Inhibition (fluorescent peptidyl substrate); format: biochemical; conditions: for IC50: read-out: TACE IC 50
T1 construct: purchased Immunex
Procedure: Using 96-well black microtiter plates, each well recieves a solution composed of 10 μL TACE (Immunex, final concentration 1 μg/mL), 70 μL Tris buffer, pH 7.4 containing 10% glycerol (final concentration 10 mM), and 10 μL of test compound solution in DMSO (final concentration, DMSO concentration <1%) and incubated for 10 minutes at room temperature. The reaction is initiated by addition of a fluorescent peptidyl substrate (final concentration 100 μM) to each well and then shaking on a shaker for 5 sec. The reaction is read (excitation 340 nm, emission 420 nm) for 10 min. and the increase in fluorescence over time is plotted as a linear line. The slope of the line is calculated and represents the reaction rate. […] The mean (x±sem) of the control rate is calculated and compared for statistical significance (p<0.05) with drug-treated rates using Dunnett's multiple comparison test.

T1 sequence (P78536 215-824): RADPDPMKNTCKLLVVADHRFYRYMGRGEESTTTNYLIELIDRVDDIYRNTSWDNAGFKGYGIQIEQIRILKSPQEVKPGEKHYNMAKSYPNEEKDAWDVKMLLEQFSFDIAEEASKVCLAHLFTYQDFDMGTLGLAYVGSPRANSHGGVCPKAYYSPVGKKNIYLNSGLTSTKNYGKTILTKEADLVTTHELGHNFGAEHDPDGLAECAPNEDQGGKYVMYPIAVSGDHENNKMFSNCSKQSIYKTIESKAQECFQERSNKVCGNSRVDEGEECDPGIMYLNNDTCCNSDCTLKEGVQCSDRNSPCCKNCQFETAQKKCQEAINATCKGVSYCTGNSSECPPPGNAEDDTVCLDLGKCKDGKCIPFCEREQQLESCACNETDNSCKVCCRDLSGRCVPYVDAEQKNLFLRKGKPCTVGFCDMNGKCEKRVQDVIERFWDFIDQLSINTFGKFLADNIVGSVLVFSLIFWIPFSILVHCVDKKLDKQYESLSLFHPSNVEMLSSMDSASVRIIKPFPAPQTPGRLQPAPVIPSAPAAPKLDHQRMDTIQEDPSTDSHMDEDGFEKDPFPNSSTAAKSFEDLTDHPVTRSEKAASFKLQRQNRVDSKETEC

Compound	MMP 13 % inhibition at 0.2 μM (HTS) (MMP 13) [%]	TACE % inhibition at 1 mM (TACE) [%]	MMP 13 % inhibition at 36 nM (HTS) (MMP 13) [%]	also measured
CCCCCCCCC(C(=O)NO)[S+]([O-])c1ccc([S+](C)[O-])cc1 (stereo not shown) [Example 144, 2-(4-methanesulfinyl-benzenesulfinyl)decanoic acid hydroxamide]	38	–	–	–
CCCCCCCCC(Sc1cccc(OC)c1)C(=O)NO (stereo not shown) [Example 140, 2-(3-methoxy-benzenesulfanyl)decanoic acid hydroxamide]	29	–	–	–
COc1ccc(SC(C)C(=O)NO)cc1 (stereo not shown) [Example 111, N-Hydroxy-2-(4-methoxy-benzenesulfanyl)-propionamide]	10	40.4	–	–
COC(=O)CCC(Sc1ccc(SC)cc1)C(=O)NO (stereo not shown) [Example 131, 4-Hydroxycarbamoyl-4-(4-methanesulfanyl-phenylsulfanyl)-butyric acid methyl ester]	71	–	–	–
O=C(CCC(Sc1ccccc1C(F)(F)F)C(=O)NO)NO (stereo not shown) [Example 137, 4-Hydroxycarbamoyl-4-(2-trifluoromethyl-benzenesulfanyl)-butyric acid hydroxyamide]	83	13.35	–	–
CCCCCCCCC(C(=O)NO)S(=O)(=O)c1cccc(OC)c1 (stereo not shown) [Example 142, 2-(3-Methoxy-benzenesulfonyl)decanoic acid hydroxamide]	69	–	–	–
O=C(NO)C(Cc1cnc[nH]1)Sc1ccccc1Br (stereo not shown) [Example 152, 2-(2-bromo-benzenesulfanyl)-N-hydroxy-3-(3H-imidazol-4-yl)-propionamide]	9	–	–	–
CCCCCCC(Sc1nc2ccccc2[nH]1)C(=O)NO (stereo not shown) [Example 168, 2-(2-Benzimidazol-2-ylsulfanyl)-octanoic acid hydroxyamide]	21	–	–	–
CCCCCCCCC(C(=O)NO)S(=O)(=O)c1ccc(S(C)(=O)=O)cc1 (stereo not shown) [Example 145, 2-(4-methanesulfonyl-benzenesulfonyl)decanoic acid hydroxamide]	45	–	–	–
CCCCCCC(Sc1cc(Cl)ccc1Cl)C(=O)NO (stereo not shown) [Example 160, 2-(2,5-dichlorobenzenesulfanyl)-octanoic Acid Hydroxyamide]	14	–	–	–
N=C(N)NCCCC(Sc1ccccc1Br)C(=O)NO (stereo not shown) [Example 157, 2-(2-Bromosulfanyl)-5-guanidino-pentanoic acid hydroxyamide]	19	–	–	–
N=C(N)NCCCC(C(=O)NO)S(=O)(=O)c1ccccc1Br (stereo not shown) [Example 159, 2-(2-Bromosulfonyl)-5-guanidino-pentanoic acid hydroxyamide]	49	–	–	–
COc1ccc(S(=O)(=O)C2(C(=O)NO)CCN(C(C)(C)C)CC2)cc1 [Example 92, 1-Tert-butyl-4-(4-methoxy-benzenesulfonyl)-piperidine-4-carboxylic acid hydroxyamide]	–	–	–	IC50 (TACE): 9.7 nM; melting point: 40 °C
O=C(CCC(Sc1ccc(Br)cc1)C(=O)NO)NO (stereo not shown) [Example 134, 4-Hydroxycarbamoyl-4-(4-bromo-benzenesulfanyl)-butyric acid hydroxyamide]	25	−9.31	–	–
COc1ccc(S(=O)(=O)C2(C(=O)NO)CCN(C3CCCCCCC3)CC2)cc1 [Example 94, 1-Cyclooctyl-4-(4-methoxy-benzenesulfonyl)-piperidine-4-carboxylic acid hydroxyamide]	–	–	–	IC50 (TACE): 22.9 nM; melting point: > 200 °C
CC(C)CCSC(C)C(=O)NO (stereo not shown) [Example 112, N-Hydroxy-2-(3-methyl-butane-1-sulfanyl)-propionamide]	50	33.7	–	–
3-Bromo-2-chloro-thiophene-2-sulfonic acid 4-(1-hydroxycarbamoyl-heptylsulfonyl)-hydroxyamide [Example 239]	–	45.9	54	–
CCCCCCC(Sc1cccc(OC)c1)C(=O)NO (stereo not shown) [Example 162, 2-(3-Methoxybenzenesulfanyl)-octanoic acid hydroxyamide]	13	–	–	–
CSc1ccc(SC(COCc2ccccc2)C(=O)NO)cc1 (stereo not shown) [Example 146, 3-benzyloxy-N-hydroxy-2-(4-methanesulfanyl-benzenesulfanyl)-propionamide]	68	–	–	–

Compound	MMP 13 % inhibition at 0.2 μM (HTS) (MMP 13) [%]	TACE % inhibition at 1 mM (TACE) [%]	MMP 13 % inhibition at 36 nM (HTS) (MMP 13) [%]	also measured
CCCCCCC(C(=O)NO)[S+]([O-])c1ccc(NS(=O)(=O)c2ccc(-c3ccccn3)s2)cc1 (stereo not shown) [Example 237, 5-Pyridin-2-yl-thiophene-2-sulfonic acid 4(1-hydroxycarbamoyl-heptylsulfinyl)-hydroxy amide]	–	38.2	55	–
3-(1-Hydroxycarbamoyl-heptylsulfanyl)-benzoic acid hydroxyamide [Example 184]	–	24.8	16	–
N-Hydroxy-3-methyl-2-phenethylsulfinyl-butyramide [Example 117]	7	8.1	–	–
CCCCCCC(Sc1ccc(NS(=O)(=O)c2cc(Cl)sc2Cl)cc1)C(=O)NO (stereo not shown) [Example 233]	–	19.8	33	–
CCCCCCC(C(=O)NO)[S+]([O-])c1nc2ccccc2[nH]1 (stereo not shown) [Example 177, 2-(2-Benzimidazol-2-ylsulfinyl)-octanoic acid hydroxyamide]	–	–	5	–
N=C(N)NCCCC(C(=O)NO)[S+]([O-])c1ccccc1Br (stereo not shown) [Example 158, 2-(2-Bromosulfinyl)-5-guanidino-pentanoic acid hydroxyamide]	33	–	–	–
CCCCCCC(Sc1nc2ccccc2s1)C(=O)NO (stereo not shown) [Example 170, 2-(2-Benzothiazol-2-ylsulfanyl)-octanoic acid hydroxyamide]	–	–	32	–
CC(C)=CCC(CC=C(C)C)(C(=O)NO)S(=O)(=O)c1ccc(C)cc1 [Example 42, 5-Methyl-2-(3-methyl-but-2-enyl)-2-(toluene-4-sulfonyl)-hex-4-enoic acid hydroxyamide]	–	–	–	IC50 (TACE): 36.5 nM; melting point: 108 to 110 °C
CCCCCCC(Sc1ccc(OCc2ccccc2)cc1)C(=O)NO (stereo not shown) [Example 199, 2-(^4-Benzyloxy-phenylsulfanyl)-octanoic acid hydroxyamide]	–	–	−10	–
CCCCCCCCC(C(=O)NO)[S+]([O-])c1cccc(OC)c1 (stereo not shown) [Example 141, 2-(3-Methoxy-benzenesulfinyl)decanoic acid hydroxamide]	32	–	–	–
CCCCCCC(C(=O)NO)[S+]([O-])c1ccc(NS(=O)(=O)c2c(C)nn(C)c2Cl)cc1 (stereo not shown) [Example 235, 5-Chloro-1,3-dimethyl-1H-pyrazole-4-sulfonic acid 4-(1-hydroxycarbamoyl-heptylsulfinyl)-hydroxyamide]	–	48.3	59	–
CCCCCCC(Sc1nc2ccccc2o1)C(=O)NO (stereo not shown) [Example 169, 2-(2-Benzooxazol-2-ylsulfanyl)-octanoic acid hydroxyamide]	–	–	28	–
CCCCCCC(C(=O)NO)S(=O)(=O)c1[nH]c2ccccc2[n+]1[O-] (stereo not shown) [Example 181, 2-(3-Oxy-1H-benzimidazole-2-sulfonyl)-octanoic acid hydroxyamide]	–	–	6	–
CCCCCCC(Sc1nc(-c2ccccc2)cs1)C(=O)NO (stereo not shown) [Example 172, 2-(4-Phenyl-thiazole-2-sulfanyl)-octanoic acid hydroxyamide]	–	29.4	34	–
COc1ccc(S(=O)(=O)C2(C(=O)NO)CCN(C(C)C)CC2)cc1 [Example 96, 1-Isopropyl-4-(4-methoxy-benzenesulfonyl)-piperidine-4-carboxylic acid hydroxyamide]	–	–	–	IC50 (TACE): 18.1 nM; melting point: 75 °C
CCCCCCC(Sc1ccc(OC)c(OC)c1)C(=O)NO (stereo not shown) [Example 165, 2-(3,4-Dimethoxybenzenesulfanyl)-octanoic acid hydroxyamide]	71	–	–	–
CCCCCCC(C(=O)NO)S(=O)(=O)CCc1cccc[n+]1[O-] (stereo not shown) [Example 183, 2-[2-(1-Oxy-pyridin-2-yl)-ethanesulfonyl]-octanoic acid hydroxyamide]	–	–	−6	–
CCCCCCC(C(=O)NO)S(=O)(=O)c1ccc(NS(=O)(=O)c2cccc3nsnc23)cc1 (stereo not shown) [Example 240, Benzo[1,2,5]thiadiazole-4-sulfonic acid 4-(1-hydrxycarbamoyl-heptylsulfonyl)-hydroxyamide]	–	40.3	48	–
CCC(SCC(=O)OC)C(=O)NO (stereo not shown) [Example 119, (1-Hydroxycarbamoyl-propane-1-sulfanyl)-acetic acid methyl ester]	0	7.8	–	–
